In DBAASP:
In brackets after ≈: the same amount, converted by molar mass.

Tests used:
Assay in all cases: ≥ marks a high value that may be exact or a test limit, other limits are often not marked, values filed in µg/mL are converted to µM
[1] = system: Pseudomonas aeruginosa ATCC 27853
[2] = system: Candida albicans NCYC 1467
[3] = system: Escherichia coli NCTC 10418
[4] = system: Enterococcus faecalis NCTC 12697
[5] = system: Staphylococcus aureus NCTC 12493
[6] = system: Staphylococcus aureus NCTC 10788
[7] = system: Acinetobacter baumannii
[8] = system: Escherichia coli ATCC 25726
[9] = system: Candida albicans ATCC 90028
[10] = system: Acinetobacter baumannii NM109
[11] = system: Acinetobacter baumannii NM75
[12] = system: Acinetobacter baumannii NM8
[13] = system: Staphylococcus aureus ATCC 25923
[14] = system: Acinetobacter baumannii NM124
[15] = system: Acinetobacter baumannii NM35
[16] = system: Pseudomonas aeruginosa H1001
[17] = system: Bacillus subtilis var. niger ATCC 9372
[18] = system: Escherichia coli K91BK
[19] = system: Bacillus anthracis Sterne 34F2
[20] = system: Proteus mirabilis
[21] = system: Pseudomonas aeruginosa
[22] = system: Staphylococcus aureus
[23] = system: Streptococcus pyogenes

## CSCC[C@H](NC(=O)[C@H](CC(=O)O)NC(=O)[C@@H](NC(=O)[C@@H](NC(=O)[C@H](C)NC(=O)[C@H](CC(N)=O)NC(=O)[C@H](CC(C)C)NC(=O)[C@H](C)NC(=O)[C@H](C)NC(=O)[C@H](CCCCN)NC(=O)CNC(=O)[C@H](C)NC(=O)[C@H](C)NC(=O)[C@H](CCCCN)NC(=O)CNC(=O)[C@@H](NC(=O)[C@H](CC(N)=O)NC(=O)[C@H](CCCCN)NC(=O)[C@H](CC(C)C)NC(=O)[C@H](CC(C)C)NC(=O)[C@H](CO)NC(=O)[C@H](CCCCN)NC(=O)[C@H](Cc1c[nH]c2ccccc12)NC(=O)[C@H](CC(C)C)NC(=O)[C@H](C)N)C(C)C)C(C)C)[C@@H](C)O)C(=O)N[C@H](C(=O)N[C@@H](CC(N)=O)C(=O)N[C@@H](CCC(N)=O)C(N)=O)C(C)C [ALWKSLLKNVGKAAGKAALNAVTDMVNQ]
[1]
  MIC: 4 µM (≈ 11.6 µg/mL)
[2]
  MIC: 4 µM (≈ 11.6 µg/mL)
[3]
  MIC: 4 µM (≈ 11.6 µg/mL)
[4]
  MIC: ≥ 64 µM
[5]
  MIC: 4 µM (≈ 11.6 µg/mL)
[6]
  MIC: 4 µM (≈ 11.6 µg/mL)

## CC[C@H](C)[C@H](NC(=O)CNC(=O)CNC(=O)[C@H](C)NC(=O)[C@@H](NC(=O)[C@H](CCCCN)NC(=O)[C@@H]1CCCN1C(=O)[C@@H](NC(=O)[C@H](CC(C)C)NC(=O)[C@H](CO)NC(=O)[C@H](CC(C)C)NC(=O)[C@@H](N)Cc1ccccc1)[C@@H](C)CC)[C@@H](C)CC)C(=O)N[C@@H](C)C(=O)N[C@@H](C)C(=O)N[C@@H](CC(C)C)C(=O)N[C@@H](C)C(=O)N[C@@H](CCCCN)C(=O)N[C@@H](Cc1cnc[nH]1)C(=O)N[C@@H](CC(C)C)C(N)=O [FLSLIPKIAGGIAALAKHL]
[2]
  MIC: 2.07 µM (≈ 4 µg/mL)
[3]
  MIC: 16.6 µM (≈ 32 µg/mL)
[4]
  MIC: 16.6 µM (≈ 32 µg/mL)
[5]
  MIC: 4.14 µM (≈ 8 µg/mL)
[6]
  MIC: 4.14 µM (≈ 8 µg/mL)

## CC[C@H](C)[C@H](NC(=O)CN)C(=O)N[C@@H](Cc1c[nH]c2ccccc12)C(=O)N[C@@H](CCCCN)C(=O)N[C@H](C(=O)N[C@H](C(=O)N[C@@H](CCCCN)C(=O)N[C@@H](CO)C(=O)N[C@@H](CCSC)C(=O)NCC(=O)N[C@@H](CCCCN)C(=O)N[C@H](C(=O)N[C@@H](Cc1ccccc1)C(=O)N[C@@H](C)C(=O)NCC(=O)N[C@@H](C)C(=O)N[C@H](C(=O)N[C@@H](CCCCN)C(=O)N[C@@H](CCC(N)=O)C(=O)N[C@@H](CC(N)=O)C(=O)N[C@@H](CC(C)C)C(N)=O)[C@@H](C)CC)C(C)C)[C@@H](C)CC)[C@@H](C)O [GIWKTIKSMGKVFAGAIKQNL]
[7]
  MIC: 6.25 µM (≈ 14.3 µg/mL)
[8]
  MIC: 12.5 µM (≈ 28.6 µg/mL)
[9]
  MIC: 12.5 µM (≈ 28.6 µg/mL)
[10]
  MIC: 3 µM (≈ 6.87 µg/mL)
[11]
  MIC: 3 µM (≈ 6.87 µg/mL)
[12]
  MIC: 3 µM (≈ 6.87 µg/mL)
[13]
  MIC: 100 µM (≈ 229 µg/mL)
[14]
  MIC: 3 µM (≈ 6.87 µg/mL)
[15]
  MIC: 3 µM (≈ 6.87 µg/mL)

## CC[C@H](C)[C@H](NC(=O)CN)C(=O)N[C@@H](Cc1c[nH]c2ccccc12)C(=O)N[C@@H](CCCCN)C(=O)N[C@H](C(=O)N[C@H](C(=O)N[C@@H](CCCCN)C(=O)N[C@@H](CO)C(=O)N[C@@H](CCSC)C(=O)NCC(=O)N[C@@H](CCCCN)C(=O)N[C@H](C(=O)N[C@@H](Cc1ccccc1)C(=O)N[C@@H](C)C(=O)NCC(=O)N[C@@H](CCCCN)C(=O)N[C@H](C(=O)N[C@@H](CCCCN)C(=O)N[C@@H](CCC(N)=O)C(=O)N[C@@H](CC(N)=O)C(=O)N[C@@H](CC(C)C)C(N)=O)[C@@H](C)CC)C(C)C)[C@@H](C)CC)[C@@H](C)O [GIWKTIKSMGKVFAGKIKQNL]
[7]
  MIC: 6.25 µM (≈ 14.7 µg/mL)
[8]
  MIC: 25 µM (≈ 58.7 µg/mL)
[9]
  MIC: 12.5 µM (≈ 29.3 µg/mL)
[10]
  MIC: 6 µM (≈ 14.1 µg/mL)
[11]
  MIC: 3 µM (≈ 7.04 µg/mL)
[12]
  MIC: 6 µM (≈ 14.1 µg/mL)
[13]
  MIC: 100 µM (≈ 235 µg/mL)
[14]
  MIC: 6 µM (≈ 14.1 µg/mL)
[15]
  MIC: 6 µM (≈ 14.1 µg/mL)

## CC[C@H](C)[C@H](NC(=O)[C@H](CCCCN)NC(=O)[C@H](CCCCN)NC(=O)[C@H](Cc1cnc[nH]1)NC(=O)[C@@H](NC(=O)[C@H](CCCN=C(N)N)NC(=O)[C@H](CS)NC(=O)[C@H](CC(C)C)NC(=O)[C@H](CC(C)C)NC(=O)[C@@H](N)CCCCN)C(C)C)C(=O)O [KLLCRVHKKI]
[16]
  MIC: ≥ 40.4 µM

## CC(=O)N[C@@H](CCCCN)C(=O)N[C@@H](Cc1c[nH]c2ccccc12)C(=O)N[C@@H](CCCCN)C(=O)N[C@@H](CCCCN)C(=O)N[C@@H](CC(C)C)C(=O)N[C@@H](CC(C)C)C(=O)N[C@@H](CCCCN)C(=O)N[C@@H](CCCCN)C(=O)N1CCC[C@H]1C(=O)N[C@@H](CC(C)C)C(=O)N[C@@H](CC(C)C)C(=O)N[C@@H](CCCCN)C(=O)N[C@@H](CCCCN)C(=O)N[C@@H](CC(C)C)C(=O)N[C@@H](CC(C)C)C(=O)N[C@@H](CCCCN)C(=O)N[C@@H](CCCCN)C(=O)N[C@@H](CC(C)C)C(N)=O [KWKKLLKKPLLKKLLKKL]
[17]
  MIC: 3.13 µM (≈ 7.16 µg/mL)
[18]
  MIC: ≥ 100 µM
[19]
  MIC: ≥ 100 µM

## NCCCC[C@H](NC(=O)[C@H](CCCCN)NC(=O)[C@H](Cc1c[nH]c2ccccc12)NC(=O)[C@H](CCCCN)NC(=O)[C@H](Cc1c[nH]c2ccccc12)NC(=O)[C@H](Cc1c[nH]c2ccccc12)NC(=O)[C@H](CCCCN)NC(=O)[C@H](Cc1c[nH]c2ccccc12)NC(=O)[C@@H](N)CCCCN)C(N)=O [KWKWWKWKK]
[16]
  MIC: ≥ 89 µM

## CC[C@H](C)[C@H](NC(=O)[C@H](CC(C)C)NC(=O)[C@H](C)NC(=O)[C@H](CO)NC(=O)[C@@H](NC(=O)[C@H](CC(C)C)NC(=O)[C@@H](N)CC(N)=O)C(C)C)C(=O)N[C@@H](CCC(=O)O)C(=O)NCC(=O)N[C@@H](CCCN=C(N)N)C(=O)N[C@@H](CCCCN)C(=O)N[C@@H](Cc1ccc(O)cc1)C(=O)N[C@@H](CC(C)C)C(=O)N[C@@H](CCCCN)C(=O)N[C@@H](CC(N)=O)C(=O)N[C@H](C(=O)N[C@@H](CC(C)C)C(=O)N[C@@H](CCCCN)C(=O)O)C(C)C [NLVSALIEGRKYLKNVLK]
[1]
  MIC: > 249 µM
[2]
  MIC: 31.1 µM (≈ 64 µg/mL)
[3]
  MIC: ≥ 62.2 µM
[6]
  MIC: ≥ 62.2 µM

## NC(N)=NCCC[C@H](NC(=O)[C@H](CCCN=C(N)N)NC(=O)[C@H](CCCN=C(N)N)NC(=O)[C@H](CCCN=C(N)N)NC(=O)[C@H](Cc1c[nH]c2ccccc12)NC(=O)[C@H](Cc1c[nH]c2ccccc12)NC(=O)[C@H](Cc1c[nH]c2ccccc12)NC(=O)[C@H](Cc1c[nH]c2ccccc12)NC(=O)[C@H](CCCN=C(N)N)NC(=O)[C@H](CCCN=C(N)N)NC(=O)[C@H](CCCN=C(N)N)NC(=O)[C@@H](N)CCCN=C(N)N)C(=O)O [RRRRWWWWRRRR]
[20]
  MIC: 31.8 µM (≈ 64 µg/mL)
[21]
  MIC: > 31.8 µM
[22]
  MIC: 3.98 µM (≈ 8 µg/mL)
[23]
  MIC: 0.807 µM (≈ 1.62 µg/mL)

## CC[C@H](C)[C@H](NC(=O)[C@H](CCCN=C(N)N)NC(=O)[C@H](CCCN=C(N)N)NC(=O)[C@@H]1CCCN1C(=O)[C@H](CCSC)NC(=O)[C@H](CCCN=C(N)N)NC(=O)[C@@H]1CCCN1C(=O)[C@H](CCCN=C(N)N)NC(=O)[C@@H]1CCCN1C(=O)[C@H](CC(C)C)NC(=O)[C@H](Cc1ccc(O)cc1)NC(=O)[C@@H]1CCCN1C(=O)[C@@H]1CCCN1C(=O)[C@H](CCCCN)NC(=O)[C@H](CC(=O)O)NC(=O)[C@@H](N)C(C)C)C(=O)N[C@@H](Cc1ccc(O)cc1)C(=O)N[C@@H](CC(N)=O)C(=O)N[C@@H](CCCN=C(N)N)C(=O)NCC(=O)O [VDKPPYLPRPRMPRRIYNRG]
[16]
  MIC: 0.0886 µM (≈ 0.22 µg/mL)

## NC(N)=NCCC[C@H](NC(=O)[C@H](CCCN=C(N)N)NC(=O)[C@H](CCCN=C(N)N)NC(=O)[C@H](CCCN=C(N)N)NC(=O)[C@H](CCCN=C(N)N)NC(=O)[C@H](CCCN=C(N)N)NC(=O)[C@H](CCCN=C(N)N)NC(=O)[C@H](CCCN=C(N)N)NC(=O)[C@@H](N)Cc1c[nH]c2ccccc12)C(=O)O [WRRRRRRRR]
[20]
  MIC: ≥ 44 µM
[21]
  MIC: > 44 µM
[22]
  MIC: 22 µM (≈ 32 µg/mL)
[23]
  MIC: 2.75 µM (≈ 4 µg/mL)

## CC(=O)N[C@@H](Cc1c[nH]c2ccccc12)C(=O)N[C@@H](CCCN=C(N)N)C(=O)N[C@@H](CO)C(=O)N[C@@H](CC(C)C)C(=O)NCC(=O)N[C@@H](CCCN=C(N)N)C(=O)N[C@H](C(=O)N[C@@H](CC(C)C)C(=O)N[C@@H](CC(C)C)C(=O)N[C@@H](CCCN=C(N)N)C(=O)N[C@@H](CC(C)C)C(=O)N[C@@H](CO)C(=O)N[C@@H](Cc1cnc[nH]1)C(=O)N[C@@H](C)C(=O)N[C@@H](CC(C)C)C(=O)N[C@@H](CCCCN)C(=O)N1CCC[C@H]1C(=O)N[C@@H](CC(C)C)C(=O)N[C@@H](C)C(=O)N[C@@H](CCCN=C(N)N)C(=O)N[C@@H](CCCN=C(N)N)C(=O)N[C@@H](CO)C(=O)NCC(=O)N[C@@H](Cc1c[nH]c2ccccc12)C(N)=O)[C@@H](C)O [WRSLGRTLLRLSHALKPLARRSGW]
[17]
  MIC: 2.1 µM (≈ 6.03 µg/mL)
[18]
  MIC: ≥ 100 µM
[19]
  MIC: 7.87 µM (≈ 22.6 µg/mL)
